Results reported in patent US9029337B2, “Modulation of factor 7 expression” (Isis Pharmaceuticals, Inc., priority 2007, dated 2015).
e = 2'-O-(2-methoxyethyl) (MOE); d = 2'-deoxy (DNA)

Tests used:
Format in all cases: in vivo, mouse
BALB/c mice = assay: Tail bleeding assay; conditions: mouse, in vivo
Protocol: (§1) Mice not receiving treatment with FeCl3 solution were evaluated in a tail bleeding chamber. Mice were placed into the bleeding chamber two days after the final treatment of ISIS 403102 or PBS. Mice were anesthetized in the chamber with isofluorane and a small piece of tail (approximately 4 mm from the tip) was cut with sterile scissors. The cut tail was immediately placed in a 15 mL Falcon tube filled with approximately 10 mL of 0.9% NaCl buffer solution warmed to 37° C. The blood was collected over the course of 40 minutes. The saline filled tubes were weighed both before and after bleeding.
Tail-bleeding was measured to observe whether treatment with ISIS 403102 or warfarin causes internal hemorrhage in mice. ISIS 403102 and warfarin (Coumadin®) were evaluated in the tail bleeding assay. Six groups of BALB/c mice were treated with 1.25 mg/kg, 2.5 mg/kg, 5 mg/kg, 10 mg/kg, 20 mg/kg, or 40 mg/kg of ISIS 403102, administered subcutaneously twice a week for 3 weeks. An additional 6 groups of BALB/c mice were treated with 0.5 mg/kg, 1 mg/kg, 2 mg/kg, 3 mg/kg, 4 mg/kg, and 5 mg/kg of warfarin, administered intraperioneally daily for 6 days. A separate control group of BALB/c mice was treated with PBS, administered subcutaneously twice a week for 3 weeks.
as §1, with “Two” for “Mice not receiving treatment with FeCl3 solution were evaluated in a tail bleeding chamber. Mice were placed into the bleeding chamber two”, “403102, warfarin,” for “403102”, “PBS, mice were placed in a tail bleeding chamber.” for “PBS.”
ISIS 403102 and Apixaban were evaluated in BALB/c mice. In a first group of BALB/c mice, 40 mg/kg of ISIS 403102 was administered subcutaneously twice a week for 3 weeks. An additional 3 groups of BALB/c mice were treated with 5 mg/kg and 10 mg/kg of Apixaban, administered in a single intraperitoneal dose, and 10 mg/kg of Apixaban administered as a single subcutaneous dose. A control group of BALB/c mice was treated with PBS, administered subcutaneously twice a week for 3 weeks.
as §1, with “Two” for “Mice not receiving treatment with FeCl3 solution were evaluated in a tail bleeding chamber. Mice were placed into the bleeding chamber two”, “PBS, mice were placed in a tail bleeding chamber. Mice from the groups treated with Apixaban were analyzed 30 minutes after the single dose.” for “PBS.”, “weighed” for “weighed both”

murine Factor 7 mRNA = assay: Antisense inhibition of murine Factor 7 mRNA in liver of BALB/c mice, dose response
Protocol: BALB/c mice were treated with ISIS 403102 ([…], target site 11336, incorporated herein as SEQ ID NO: 161). BALB/c mice were injected subcutaneously with 5 mg/kg, 10 mg/kg, 25 mg/kg, or 50 mg/kg of ISIS 403102 twice a week for 3 weeks. A control group of mice was injected subcutaneously with PBS twice a week for 3 weeks. After the treatment period, whole liver was collected for RNA and protein analysis, and plasma was collected for clotting analysis (PT/aPTT).
RNA was extracted from liver tissue for real-time RT-PCR analysis of Factor 7. […] Results are presented as percent inhibition of Factor 7, relative to the control.

[1] = tested on: intrinsic pathway of blood coagulation; assay: Activated Partial Thromboplastin Time (aPTT) in platelet poor plasma of treated BALB/c mice
Protocol: (§2) Prothrombin Time (PT) and Activated Partial Thromboplastin Time (aPTT) were measured using platelet poor plasma (PPP) from mice treated with ISIS 403102. PT and aPTT values provided in Table 20 are reported as International Normalized Ratio (INR) values. INR values for PT and aPTT were determined by dividing the PT or aPTT value for the experimental group by the PT or aPTT for the PBS treated group. This ratio was then raised to the power of the International Sensitivity Index (ISI) of the tissue factor used.
as §2, with “in Table 22 are reported” for “in Table 20 are reported”, “experimental group (i.e. 50 mg/kg treatment with ISIS 403102) by the” for “experimental group by the”
as §2, with “in Table 24 are reported” for “in Table 20 are reported”, “experimental group (i.e. 50 mg/kg treatment with ISIS 403102) by the” for “experimental group by the”

How did the “amount of bleeding in comparison to PBS treated mice” value (BALB/c mice) turn out when “CCATAGAACAGCTTCACAGG (sugars from the 5' end e5 d10 e5, backbone and methylation of C not given here) [ISIS 403102]” was run?
The value was “slight decrease in the amount of bleeding”.

And the “bleeding as compared to PBS control mice” value (BALB/c mice)?
Its value is “did not significantly affect bleeding”.

And the “amount of bleeding in comparison to PBS treated mice” value (BALB/c mice; 50 mg/kg)?
The value was “Bleeding was the same”.

What about the “Blood (g), tail bleeding” value (BALB/c mice; sc, 40 mg/kg) of the same sequence?
The value was 0.10 g.

What about the “bleeding compared to PBS treated mice” value (BALB/c mice; sc, 40 mg/kg) of the same sequence?
The value was “less bleeding than PBS treated mice”.

What about the “% inhibition of murine Factor 7 mRNA” value (murine Factor 7 mRNA; 5 mg/kg subcutaneously twice a week for 3 weeks, relative to PBS control) of the same sequence?
Its value is 64%.

What about the “% inhibition of murine Factor 7 mRNA” value (murine Factor 7 mRNA; 10 mg/kg subcutaneously twice a week for 3 weeks) of the same sequence?
The value was 84%.

And the “% inhibition of murine Factor 7 mRNA” value (murine Factor 7 mRNA; 25 mg/kg subcutaneously twice a week for 3 weeks)?
Its value is 96%.

And the “% inhibition of murine Factor 7 mRNA” value (murine Factor 7 mRNA; 50 mg/kg subcutaneously twice a week for 3 weeks)?
Its value is 99%.

What about the “reduction of murine Factor 7 mRNA over the PBS control” value (murine Factor 7 mRNA; 5-50 mg/kg twice a week for 3 weeks) of the same sequence?
Its value is “dose-dependent reduction of murine Factor 7”.

What about the “aPTT INR” value ([1]; BALB/c mice, 5 mg/kg, relative to PBS treated group) of the same sequence?
The value was 1.05.

And the “aPTT INR” value ([1]; BALB/c mice, 10 mg/kg, relative to PBS treated group)?
Its value is 1.04.

What about the “aPTT INR” value ([1]; BALB/c mice, 25 mg/kg, relative to PBS treated group) of the same sequence?
Its value is 1.09.

And the “aPTT INR” value ([1]; BALB/c mice, 50 mg/kg, 1 dose, 1 day after last dose, relative to PBS group)?
Its value is 1.08 INR.

And the “aPTT INR” value ([1]; BALB/c mice, 50 mg/kg, 1 dose, 3 days after last dose, relative to PBS group)?
The value was 1.10 INR.

And the “aPTT INR” value ([1]; BALB/c mice, 50 mg/kg, 2 doses, 3 days after last dose, relative to PBS group)?
Its value is 1.29 INR.

And the “aPTT INR” value ([1]; BALB/c mice, 50 mg/kg, 4 doses, 3 days after last dose, relative to PBS group)?
The value was 1.53 INR.

What about the “aPTT INR” value ([1]; BALB/c mice, 50 mg/kg, 6 doses, 2 days after last dose, relative to PBS group) of the same sequence?
The value was 1.62 INR.

And the “aPTT INR” value ([1]; BALB/c mice, 50 mg/kg, 6 doses, 7 days after last dose, relative to PBS group)?
The value was 1.67 INR.

What about the “aPTT INR” value ([1]; BALB/c mice, 50 mg/kg, 6 doses, 14 days after last dose, relative to PBS group) of the same sequence?
The value was 1.25 INR.

What about the “aPTT INR” value ([1]; BALB/c mice, 50 mg/kg, 6 doses, 28 days after last dose, relative to PBS group) of the same sequence?
The value was 0.90 INR.

What about the “aPTT INR” value ([1]; BALB/c mice, 50 mg/kg, 6 doses, 42 days after last dose, relative to PBS group) of the same sequence?
The value was 1.00 INR.

And the “aPTT INR” value ([1]; BALB/c mice, 50 mg/kg, 6 doses, 56 days after last dose, relative to PBS group)?
Its value is 0.98 INR.

And the “aPTT INR” value ([1]; BALB/c mice, 50 mg/kg, relative to PBS treated group)?
The value was 1.16.

And the “aPTT INR” value ([1]; BALB/c mice, single dose 50 mg/kg, day 1)?
The value was 1.00.

And the “aPTT INR” value ([1]; BALB/c mice, single dose 50 mg/kg, day 2)?
Its value is 1.05.

And the “aPTT INR” value ([1]; BALB/c mice, single dose 50 mg/kg, day 3)?
Its value is 1.24.

What about the “aPTT INR” value ([1]; BALB/c mice, single dose 50 mg/kg, day 4) of the same sequence?
Its value is 1.15.

What about the “aPTT INR” value ([1]; BALB/c mice, single dose 50 mg/kg, day 6) of the same sequence?
The value was 1.23.

And the “aPTT INR” value ([1]; BALB/c mice, single dose 50 mg/kg, day 8)?
Its value is 1.18.

And the “aPTT INR” value ([1]; BALB/c mice, single dose 50 mg/kg, day 12)?
The value was 1.18.

What about the “aPTT INR” value ([1]; BALB/c mice, single dose 50 mg/kg, day 24) of the same sequence?
The value was 1.02.

What about the “aPTT INR” value ([1]; BALB/c mice, single dose 50 mg/kg, day 56) of the same sequence?
Its value is 0.97.

What about the “aPTT compared to the control” value ([1]; Example 11, 5-50 mg/kg twice a week for 3 weeks) of the same sequence?
The value was “slightly prolonged”.

What about the aPTT ([1]; Example 13, 6 doses, from day 7 to day 56) of the same sequence?
The aPTT was “decreased”.

And the “aPTT INR” value ([1]; single dose 50 mg/kg, day 4)?
Its value is 1.24.

And the “aPTT INR” value ([1]; single dose 50 mg/kg, day 56)?
Its value is 0.97.

And the “aPTT INR” value ([1]; single dose 50 mg/kg, starting value before the rise to day 4)?
Its value is 1.00.
